Assay results from patent US9358305B2, “Targeted carriers for drug delivery across the gastrointestinal epithelium” (University of Maryland, College Park, priority 2009, dated 2016).
Ends that are not written are not given here.

Columns and labels:
human ICAM-1 = test: Binding of clone A1 phages to human ICAM-1/hFc and HUVEC
ICAM-1 on HUVEC = test: Leukocyte transmigration across TNF-activated HUVEC monolayer in transwell; format: cell-based, human; conditions: compared to albumin, scrambled peptide and LB2 controls
Method: Human endothelial cells (human umbilical vein endothelial cells (HUVECs)) were grown until formation of a continuous confluent monolayer in a transwell filter located between upper and lower chambers. The cells were then treated with tumor necrosis factor alpha to mimic inflammatory activation of endothelial cells and SDF1a was added to the lower chamber to generate a gradient to attract white blood cells, as during inflammation. Lymphocytes isolated from human peripheral blood were activated with interleukin 2 and added to the upper chamber above endothelial cells in the absence (control) or presence of ICAM-1-targeting peptides A1, B7, B8, B9, B10, or D6. Albumin or a peptide of scrambled sequence were used as negative controls which should not block inflammatory transmigration of leukocytes across endothelial cells. The anti-ICAM antibody LB2, which is known to block leukocyte adhesion to ICAM-1, was used as a positive control which should block such transmigration.
Leukocytes which transmigrated to the lower chamber below endothelial cells were counted to assess their transmigration. FIG. 9 provides a graph of the resulting leukocyte transmigration as a percentage of the control. The peptides annotated with an asterisk in FIG. 9 indicate that the peptide was effective in statistically significant blockage of leukocyte transmigration across endothelial cells.

mouse ICAM-1/hFc [1] = test: ELISA of 7-mer peptide phage clones on immobilized mouse ICAM-1/hFc vs hFc; format: binding; conditions: phage clone
From the text: (§1) (A) ELISA measurement of the binding of 7-mer peptide expressing phage library to immobilized recombinant ICAM-1 (consisting of the two most membrane-distal Ig domains—1 and 2—of mouse ICAM-1 fused to human Fc or hFc), versus their binding to control hFc. (B) Relative specificity and (C) relative affinity of ICAM-1-targeting peptide phages, determined by ELISA from the experiment in (A). (D) Relative binding of phages expressing 7-mer peptides to native ICAM-1 expressed on the surface of HV5 mouse endothelial cells, either control or activated with TNFalpha to mimic a disease phenotype. Binding was determined by microscopy using a fluorescently-labeled antibody to the phage capsid. The line in the graph indicates the level of binding of A1 phage to 293 cells, which are voided of ICAM-1-expression. […] (G) Binding of FITC-labeled anti-ICAM polystyrene nanocarriers to human endothelial cells was evaluated by fluorescence microscopy after incubation with cells in the absence (100% level) or presence of anti-ICAM antibody, ICAM-1-targeting synthetic peptides, or peptides with their scramble sequence (e.g., A1sc).

mouse ICAM-1/hFc [2] = biological target: T1, mouse ICAM-1/hFc (Mus musculus, UniProt P13597); test: as above; format: binding; conditions: phage clone
T1 construct: the two most membrane-distal Ig domains—1 and 2—of mouse ICAM-1 fused to human Fc or hFc
From the text: as §1

[3] = biological target: T2, ICAM-1 on human endothelial cells (Homo sapiens, UniProt P05362); test: Competition of binding of anti-ICAM nanocarriers to human endothelial cells by synthetic peptides; format: cell-based
T2 construct: endogenous in cells
From the text: (A) ELISA measurement of the binding of 7-mer peptide expressing phage library to immobilized recombinant ICAM-1 (consisting of the two most membrane-distal Ig domains—1 and 2—of mouse ICAM-1 fused to human Fc or hFc), versus their binding to control hFc. (B) Relative specificity and (C) relative affinity of ICAM-1-targeting peptide phages, determined by ELISA from the experiment in (A). (D) Relative binding of phages expressing 7-mer peptides to native ICAM-1 expressed on the surface of HV5 mouse endothelial cells, either control or activated with TNFalpha to mimic a disease phenotype. Binding was determined by microscopy using a fluorescently-labeled antibody to the phage capsid. The line in the graph indicates the level of binding of A1 phage to 293 cells, which are voided of ICAM-1-expression. (E, F) Endocytosis (1 h, 37° C.) of phages expressing 7-mer peptides by control mouse endothelial cells (E) or mouse endothelial cells incubated in the presence of 3 mM amiloride (F) was estimated by microscopy after staining surface-located phages with a Texas red-labeled antibody to the viral capsid, following by cell permeabilization and staining of all (surface and internalized) phages using a FITC-labeled antibody to the viral capsid. (G) Binding of FITC-labeled anti-ICAM polystyrene nanocarriers to human endothelial cells was evaluated by fluorescence microscopy after incubation with cells in the absence (100% level) or presence of anti-ICAM antibody, ICAM-1-targeting synthetic peptides, or peptides with their scramble sequence (e.g., A1sc).

ICAM-1 = biological target: T3, ICAM-1 (Mus musculus, UniProt P13597); test: Lung uptake (30 min) of radiolabeled ASM vs anti-ICAM carriers injected iv in mice; format: in vivo; conditions: 30 min after iv injection
T3 construct: from tissue
Method: (A) Lung uptake (30 min) of ^125I-labeled anti-transferrin receptor (targeted to the clathrin route), anti-GM1 (anti-ganglioside GM1, targeted to caveoli), or anti-ICAM, injected intravenously in mice as free antibodies or absorbed on the surface of 100 nm polystyrene particles (prototype carrier final size=180 nm). Particles had ^125I-labeled IgG as a tracer. Dashed line=control unspecific IgG carriers. (B) Lung uptake (30 min) of radiolabeled acid sphingomyelinase, a recombinant enzyme which binds to mannose 6 phosphate (M6P) receptor, vs anti-ICAM polystyrene carriers in control C57Bl/6 mice vs diseased ASMKO mice. Data is normalized per gram due to larger lung size in ASMKO mice. […] […]. […] (E) FITC-labeled anti-ICAM carriers of diverse geometry (anti-ICAM polystyrene spheres from 0.1 to 5 μm or 0.1×1×3 μm elliptical disks, and polymorphous anti-ICAM conjugates formed by biotin-streptavidin crosslinking were incubated with TNFα activated human umbilical vein endothelial cells (HUVEC) for 1 h at 37° C. The cells were then washed and fixed, cell surface-located carriers were differentially stained with a texas red-conjugated secondary antibody, and the samples were analyzed by fluorescence microscopy to quantify the percent of carriers internalized by the cells. Data are mean±standard error of the mean for n≧4 mice or ≧20 cells. *p<0.05, **p<0.005, ***p<0.001 by student's t test.

insulin receptor = insulin receptor (Homo sapiens, UniProt P06213); conditions: reported for other strategies; cited from earlier work

T2 sequence (P05362 28-532): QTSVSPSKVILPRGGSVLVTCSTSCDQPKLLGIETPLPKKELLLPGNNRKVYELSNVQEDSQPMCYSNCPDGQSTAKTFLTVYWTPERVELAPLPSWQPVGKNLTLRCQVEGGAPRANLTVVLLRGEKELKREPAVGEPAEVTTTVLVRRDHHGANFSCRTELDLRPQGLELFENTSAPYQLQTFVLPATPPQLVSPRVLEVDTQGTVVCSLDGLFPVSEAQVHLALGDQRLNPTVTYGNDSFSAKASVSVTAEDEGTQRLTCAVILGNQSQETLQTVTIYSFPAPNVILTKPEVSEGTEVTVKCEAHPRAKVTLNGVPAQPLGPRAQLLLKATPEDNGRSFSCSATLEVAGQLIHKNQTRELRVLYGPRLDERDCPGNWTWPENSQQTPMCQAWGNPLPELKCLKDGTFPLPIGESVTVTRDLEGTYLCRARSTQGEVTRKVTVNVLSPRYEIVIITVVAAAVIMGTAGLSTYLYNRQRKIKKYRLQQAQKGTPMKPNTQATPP
T3 sequence (P13597 28-537): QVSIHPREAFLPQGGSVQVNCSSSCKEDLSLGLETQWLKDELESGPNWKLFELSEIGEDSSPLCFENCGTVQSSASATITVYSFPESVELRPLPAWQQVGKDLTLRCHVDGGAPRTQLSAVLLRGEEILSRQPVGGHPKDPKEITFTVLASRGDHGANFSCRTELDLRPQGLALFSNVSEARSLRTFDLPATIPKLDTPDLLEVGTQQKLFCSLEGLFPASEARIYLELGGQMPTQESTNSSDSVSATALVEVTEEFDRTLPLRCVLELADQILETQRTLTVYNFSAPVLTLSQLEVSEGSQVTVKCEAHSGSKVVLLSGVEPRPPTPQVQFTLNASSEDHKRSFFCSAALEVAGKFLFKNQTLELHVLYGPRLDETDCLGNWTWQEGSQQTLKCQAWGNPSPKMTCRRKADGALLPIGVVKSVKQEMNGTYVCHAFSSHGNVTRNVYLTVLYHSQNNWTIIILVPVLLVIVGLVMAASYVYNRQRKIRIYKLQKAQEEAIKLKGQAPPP
T1 sequence (P13597 28-214): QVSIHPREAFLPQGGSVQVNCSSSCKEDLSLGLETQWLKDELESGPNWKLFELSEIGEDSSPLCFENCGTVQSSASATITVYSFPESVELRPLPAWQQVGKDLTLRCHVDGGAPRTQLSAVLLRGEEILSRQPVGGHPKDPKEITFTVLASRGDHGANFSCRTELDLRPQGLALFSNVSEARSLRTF

Molecule: YPASYQR [A1, YPASYQR]
- Affinity for human ICAM-1 relative to mouse ICAM-1 (human ICAM-1): ~70 % affinity of mouse ICAM-1
- Leukocyte transmigration across endothelial cells (ICAM-1 on HUVEC): inhibit leukocyte transmigration
- Specificity vs hFc (mouse ICAM-1/hFc [1]): ~5.1 fold
- Affinity to immobilized mouse ICAM-1 over non-selected phages (mouse ICAM-1/hFc [2]): ~4.7 fold
- Inhibition of binding of anti-ICAM nanocarriers to human endothelial cells [3]: ~80 % inhibition

B1: free ASM: recombinant acid sphingomyelinase, an enzyme that binds to mannose-6-phosphate receptor (protein, UniProt P17405 47-631, looked up)
Sphingomyelin …: LALSDSRVLWAPAEAHPLSPQGHPARLHRIVPRLRDVFGWGNLTCPICKGLFTAINLGLKKEPNVARVGSVAIKLCNLLKIAPPAVCQSIVHLFEDDMVEVWRRSVLSPSEACGLLLGSTCGHWDIFSSWNISLPTVPKPPPKPPSPPAPGAPVSRILFLTDLHWDHDYLEGTDPDCADPLCCRRGSGLPPASRPGAGYWGEYSKCDLPLRTLESLLSGLGPAGPFDMVYWTGDIPAHDVWHQTRQDQLRALTTVTALVRKFLGPVPVYPAVGNHESTPVNSFPPPFIEGNHSSRWLYEAMAKAWEPWLPAEALRTLRIGGFYALSPYPGLRLISLNMNFCSRENFWLLINSTDPAGQLQWLVGELQAAEDRGDKVHIIGHIPPGHCLKSWSWNYYRIVARYENTLAAQFFGHTHVDEFEVFYDEETLSRPLAVAFLAPSATTYIGLNPGYRVYQIDGNYSGSSHVVLDHETYILNLTQANIPGAIPHWQLLYRARETYGLPNTLPTAWHNLVYRMRGDMQLFQTFWFLYHKGHPPSEPCGTPCRLATLCAQLSARADSPALCRHLMPDGSLPEAQSLWPRPLFC
- Lung accumulation, fold lower than ICAM-1 targeting (ICAM-1): 10 fold

B2: α-L-iduronidase: enzyme targeted to insulin receptor, reported brain delivery strategy (protein, UniProt P35475 28-653, looked up)
Alpha-L-iduronidase: APHLVHVDAARALWPLRRFWRSTGFCPPLPHSQADQYVLSWDQQLNLAYVGAVPHRGIKQVRTHWLLELVTTRGSTGRGLSYNFTHLDGYLDLLRENQLLPGFELMGSASGHFTDFEDKQQVFEWKDLVSSLARRYIGRYGLAHVSKWNFETWNEPDHHDFDNVSMTMQGFLNYYDACSEGLRAASPALRLGGPGDSFHTPPRSPLSWGLLRHCHDGTNFFTGEAGVRLDYISLHRKGARSSISILEQEKVVAQQIRQLFPKFADTPIYNDEADPLVGWSLPQPWRADVTYAAMVVKVIAQHQNLLLANTTSAFPYALLSNDNAFLSYHPHPFAQRTLTARFQVNNTRPPHVQLLRKPVLTAMGLLALLDEEQLWAEVSQAGTVLDSNHTVGVLASAHRPQGPADAWRAAVLIYASDDTRAHPNRSVAVTLRLRGVPPGPGLVYVTRYLDNGLCSPDGEWRRLGRPVFPTAEQFRRMRAAEDPVAAAPRPLPAGGRLTLRPALRLPSLLLVHVCARPEKPPGQVTRLRALPLTQGQLVLVWSDEHVGSKCLWTYEIQFSQDGKAYTPVSRKPSTFNLFVFSPDTGAVSGSYRVRALDYWARPGPFSDPVPYLEVPVPRGPPSPGNP
- Brain accumulation, targeting to insulin receptor (insulin receptor): 0.02 % injected dose per gram (% ID/g)
